Experiments:
biofilm 1 = test: Area covered by biofilm 1 (staining, image analysis); assay type: cell-based
Protocol: The method was tested and implemented experimentally on five types of biofilm; biofilms 1, 2, 3 and 5 were obtained using an in vitro model that mimics the hemodialysis generator: • biofilm 1: enriched with nutrients for accelerated growth (3 days) moderate thickness (about 10^5 CFU/cm^2), very rich in slime; • biofilm 2: not enriched with nutrients having grown over 1 month, equivalent to those actually encountered in dialysis generators (about 10^3 CFU/cm^2) very rich in scale crystals; • biofilm 3: enriched with nutrients for accelerated growth (5 days), thick (about 10^9 CFU/cm^2) very rich in slime; • biofilm 4: specimen of tubing conveying water for hemodialysis, taken from a center, covered with a biofilm of about 10^3 CFU/cm^2 but having grown over more than one year; and • biofilm 5: enriched with nutrients for accelerated growth, having grown in a “preventive” model over three weeks. Production of the In Vitro Model
A 250 ml reactor vessel was filled with a nonsterile dialysate, prepared by diluting sterile apyrogenic hemodialysis concentrates (Clearflex® from Bieffe Medical) with nonsterile osmosed water containing Pseudomonas putida, Pseudomonas fluorescens and Flavimonas orizibitans, produced continuously in the laboratory.
The contaminating medium was circulated in a closed circuit in a loop of silicon tubing 1.5 meters in length and 5 mm inside diameter with a flow rate of 500 ml/min by a peristaltique pump. All the tubing and the reactor vessel were sterilized beforehand in an autoclave at 121° C. for 30 minutes. Thus, the dialysate naturally contaminated by the bacteria in the water was the only source of microorganisms.
The entire system was maintained at a temperature of 37° C. by a hotplate on which the reactor vessel was placed.
In the case of biofilms 1, 3 and 5, the bacterial growth and consequently the development of the biofilm were accelerated by adding an LB culture medium diluted 50-fold, i.e. an LB culture medium diluted to […] and topped up with a flow equal to 1/10th of that of the dialysate. The dialysate and culture medium top-up flow rates, regulated by a peristaltic pump, were 5 and 0.5 ml/minute, respectively.
The tubings covered with biofilms 1, 2 and 3 were cut into segments 5 cm in length. For screening on biofilms 1 and 2, each segment for undergoing one of the various treatments to be investigated was selected by drawing lots. Control specimens taken at random from the silicon loop were kept untreated.
The tubing segments to be treated were attached to the descending branch of a set-up consisting of two tubings—one ascending and the other descending, a peristaltic pump and a water bath (for treatments carried out a temperature above 20° C.). The product to be tested in “recirculation” mode was dissolved in a 100 ml flask and driven by the peristaltic pump at a rate of 500 ml/min in a closed circuit through the tubings for a duration corresponding to the contact times given in table II. The product to be tested in “static” mode was dissolved in a 100 ml flask and driven by the peristaltic pump until the tubings had been filled; the pump was then stopped and the product left in stasis for the desired contact time. After each treatment by a given product, the tubing specimens were rinsed for five minutes with osmosed water.
The control and treated biofilms were stained: • either with a 0.25% crystal violet solution; • or with a Baclight® fluorochrome solution (Syto 9 and propidium iodide). The viable bacteria show up green while the dead bacteria show up yellow or red.
The silicon tubing specimens covered with stained biofilms were attached to glass slides and observed under an optical microscope, the microscope being connected to a camera and to “Scion Images” image analysis software. […]

biofilm 2 = test: Area covered by biofilm 2 (staining, image analysis); assay type: cell-based; settings: Treat. No. 7, 3%, 37 °C, 5 min, Recirc
Protocol: The method was tested and implemented experimentally on five types of biofilm; biofilms 1, 2, 3 and 5 were obtained using an in vitro model that mimics the hemodialysis generator: • biofilm 1: enriched with nutrients for accelerated growth (3 days) moderate thickness (about 10^5 CFU/cm^2), very rich in slime; • biofilm 2: not enriched with nutrients having grown over 1 month, equivalent to those actually encountered in dialysis generators (about 10^3 CFU/cm^2) very rich in scale crystals; • biofilm 3: enriched with nutrients for accelerated growth (5 days), thick (about 10^9 CFU/cm^2) very rich in slime; • biofilm 4: specimen of tubing conveying water for hemodialysis, taken from a center, covered with a biofilm of about 10^3 CFU/cm^2 but having grown over more than one year; and • biofilm 5: enriched with nutrients for accelerated growth, having grown in a “preventive” model over three weeks. […] Thus, several (6 to 10) photographs of the same specimen were taken, the stained area was evaluated quantitatively by the image analysis software and a mean covered area value per specimen was calculated. This mean value was compared with the covered area of the untreated control specimens: a percentage reduction in covered area was then calculated.

## O=C(O)CC(O)(CC(=O)O)C(=O)O [Citric acid]
Biofilm 1; Treat. No. 26, 3%, RT, 40 min, Recirc
  Result (removal; % covered area reduction): . (No removal 0)
Biofilm 2
  Result (removal; % covered area reduction): **** (Excellent removal 75-99%)

## [K+].[OH-] [KOH]
Biofilm 1; Treat. No. 13, 0.02N, RT, 40 min, Stat
  Result (removal; % covered area reduction): ** (Moderate removal 25-50%)
Biofilm 1; Treat. No. 15, 0.02N, RT, 40 min, Recirc
  Result (removal; % covered area reduction): ** (Moderate removal 25-50%)
Biofilm 1; Treat. No. 21, 0.02N, RT, 1 h, Recirc
  Result (removal; % covered area reduction): *** (Good removal 50-75%)
Biofilm 1; Treat. No. 22, 0.02N, RT, 24 h, Recirc
  Result (removal; % covered area reduction): **** (Excellent removal 75-99%)
Biofilm 1; Treat. No. 27, 0.002N, RT, 40 min, Recirc
  Result (removal; % covered area reduction): ** (Moderate removal 25-50%)
Biofilm 1; Treat. No. 35, 0.001N, RT, 40 min, Recirc
  Result (removal; % covered area reduction): ** (Moderate removal 25-50%)

## [Na+].[OH-] [NaOH]
Biofilm 1; Treat. No. 12, 0.01N, RT, 40 min, Stat
  Result (removal; % covered area reduction): * (Poor removal 0-25%)

## [O-][Cl+3]([O-])([O-])O [Perchlo ac, Perchloric acid]
Biofilm 1; Treat. No. 11, 0.05%, RT, 40 min, Stat
  Result (removal; % covered area reduction): . (No removal 0)

## CCCCCCCCCCCCOS(=O)(=O)[O-].[Na+] [SDS, Sodium dodecyl sulfate]
Biofilm 1; Treat. No. 1, 5%, RT, 40 min, Stat
  Result (removal; % covered area reduction): ** (Moderate removal 25-50%)
Biofilm 1; Treat. No. 8, 5%, RT, 40 min, Recirc
  Result (removal; % covered area reduction): */.

## O=C(O)C(Cl)(Cl)Cl [TCA, Trichloroacetic acid]
Biofilm 1; Treat. No. 14, 0.25%, RT, 40 min, Stat
  Result (removal; % covered area reduction): . (No removal 0)

## Triton
Biofilm 1; Treat. No. 2, 5%, RT, 40 min, Stat
  Result (removal; % covered area reduction): * (Poor removal 0-25%)
Biofilm 1; Treat. No. 16, 5%, RT, 40 min, Recirc
  Result (removal; % covered area reduction): . (No removal 0)

## Trypsin
Biofilm 1; Treat. No. 6, EDTA IX, RT, 40 min, Stat
  Result (removal; % covered area reduction): . (No removal 0)
Biofilm 1; Treat. No. 7, 0.25%, 37 °C, 40 min, Stat
  Result (removal; % covered area reduction): ** (Moderate removal 25-50%)
Biofilm 1; Treat. No. 29, 0.25%, 37 °C, 40 min, Recirc
  Result (removal; % covered area reduction): . (No removal 0)
Biofilm 1; Treat. No. 37, 1%, 37 °C, 40 min, Recirc
  Result (removal; % covered area reduction): * (Poor removal 0-25%)

B1: Thermolys: enzyme, Sigma (protein, UniProt P00800 233-548, looked up)
Thermolysin: ITGTSTVGVGRGVLGDQKNINTTYSTYYYLQDNTRGNGIFTYDAKYRTTLPGSLWADADNQFFASYDAPAVDAHYYAGVTYDYYKNVHNRLSYDGNNAAIRSSVHYSQGYNNAFWNGSQMVYGDGDGQTFIPLSGGIDVVAHELTHAVTDYTAGLIYQNESGAINEAISDIFGTLVEFYANKNPDWEIGEDVYTPGISGDSLRSMSDPAKYGDPDHYSKRYTGTQDNGGVHINSGIINKAAYLISQGGTHYGVSVVGIGRDKLGKIFYRALTQYLTPTSNFSQLRAAAVQSATDLYGSTSQEVASVKQAFDAVGVK
Biofilm 1; Treat. No. 33, 2 mg/50 ml, 37 °C, 40 min, Recirc
  Result (removal; % covered area reduction): ** (Moderate removal 25-50%)
